One test addresses T1, human Kv3.3 channels (Homo sapiens, UniProt Q14003).
T1 construct: expressed in transfected cells
T1 sequence (Q14003 1-757): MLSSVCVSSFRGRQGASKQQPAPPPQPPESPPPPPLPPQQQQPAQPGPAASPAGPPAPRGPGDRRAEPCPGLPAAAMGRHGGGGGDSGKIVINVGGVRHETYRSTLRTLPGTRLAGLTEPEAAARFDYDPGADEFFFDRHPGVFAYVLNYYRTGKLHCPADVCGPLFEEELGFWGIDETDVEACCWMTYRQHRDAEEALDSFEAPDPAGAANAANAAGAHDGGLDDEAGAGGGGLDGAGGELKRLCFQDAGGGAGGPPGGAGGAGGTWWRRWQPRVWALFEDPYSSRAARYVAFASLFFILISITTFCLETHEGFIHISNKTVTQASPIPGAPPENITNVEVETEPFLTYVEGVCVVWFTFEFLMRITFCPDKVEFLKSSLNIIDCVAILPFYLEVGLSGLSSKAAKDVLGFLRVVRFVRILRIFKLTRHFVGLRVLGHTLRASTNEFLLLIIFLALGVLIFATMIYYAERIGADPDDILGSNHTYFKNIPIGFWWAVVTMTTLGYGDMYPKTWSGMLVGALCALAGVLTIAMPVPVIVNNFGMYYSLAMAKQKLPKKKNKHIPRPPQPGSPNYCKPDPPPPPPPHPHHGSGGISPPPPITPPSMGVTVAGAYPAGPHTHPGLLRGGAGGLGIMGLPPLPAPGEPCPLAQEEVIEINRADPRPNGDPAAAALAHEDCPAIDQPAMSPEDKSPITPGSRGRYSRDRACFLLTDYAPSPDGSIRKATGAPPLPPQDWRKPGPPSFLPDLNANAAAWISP
The test can be described thus: hKv3.3 IonWorks Quattro whole-cell current potentiation assay. The test is classed as cell-based. The note with it: for mean increase in human Kv3.3 peak current at 0 mV: 12.5 micromolar; for EC50: read-out: pEC50 for Kv3.3 (converted). An excerpt: The ability of the compounds of the invention to modulate the voltage-gated potassium channel subtypes Kv3.3/Kv3.2/Kv3.1 may be determined using the following assay. Analogous methods may be used to investigate the ability of the compounds of the invention to modulate other channel subtypes.
To assess compound effects on human Kv3.3 channels (hKv3.3), a stable cell line expressing human Kv3.3 channels was created by transfecting Chinese Hamster Ovary (CHO)-K1 cells with a pBacMire_KCNC-3 vector. Cells were cultured in DMEM/F12 (Gibco) supplemented with 10% Foetal Bovine Serum (Gibco), 1× non-essential amino acids (Invitrogen) and geneticin (G418) 400 microg/mL. Cells were grown and maintained at 37° C. in a humidified environment containing 5% CO2 in air.
The day of the experiment, cells were removed from the incubator and the culture medium removed. Cells were washed with 5 ml of Dulbecco's PBS (DPBS) calcium and magnesium free and detached by the addition of 3 ml Versene (Invitrogen, Italy) followed by a brief incubation at 37° C. for 5 minutes. The flask was tapped to dislodge cells and 10 ml of DPBS containing calcium and magnesium was added to prepare a cell suspension. The cell suspension was then placed into a 15 ml centrifuge tube and centrifuged for 2 min at 1200 rpm. After centrifugation, the supernatant was removed and the cell pellet re-suspended in 4 ml of DPBS containing calcium and magnesium using a 5 ml pipette to break up the pellet. Cell suspension volume was then corrected to give a cell concentration for the assay of approximately 3 million cells per ml.
Experiments were conducted at room temperature using IonWorks Quattro™ planar array electrophysiology technology (Molecular Devices Corp.) with PatchPlate™ PPC. Stimulation protocols and data acquisition were carried out using a microcomputer (Dell Pentium 4). Planar electrode hole resistances (Rp) were determined by applying a 10 mV voltage step across each well. These measurements were performed before cell addition. After cell addition and seal formation, a seal test was performed by applying a voltage step from −80 mV to −70 mV for 160 ms. Following this, amphotericin-B solution was added to the intracellular face of the electrode to achieve intracellular access. Cells were held at −70 mV. Leak subtraction was conducted in all experiments by applying 50 ms hyperpolarizing (10 mV) prepulses to evoke leak currents followed by a 20 ms period at the holding potential before test pulses. For hKv3.2 and hKv3.1 assays, from the holding potential of −70 mV, a first test pulse to −15 mV was applied for 100 ms and following a further 100 ms at −70 mV, a second pulse to 40 mV was applied for 50 ms. Cells were then maintained for a further 100 ms at −100 mV and then a voltage ramp from −100 mV to 40 mV was applied over 200 ms. For hKv3.3 assays, from the holding potential of −70 mV, a first test pulse to 0 mV was applied for 500 ms and following a further 100 ms at −70 mV, a second pulse to 40 mV was applied for 200 ms. These longer test pulses were used to study inactivation of hKv3.3 channels.
Test pulses protocol may be performed in the absence (pre-read) and presence (post-read) of the test compound. Pre- and post-reads may be separated by the compound addition followed by a 3-minute incubation.
The intracellular solution contained the following (in mM): K-gluconate 100, KCl 54, MgCl2 3.2, HEPES 5, adjusted to pH 7.3 with KOH. Amphotericin-B solution was prepared as 50 mg/ml stock solution in DMSO and diluted to a final working concentration of 0.1 mg/ml in intracellular solution. The external solution was Dulbecco's Phosphate Buffered Saline (DPBS) and contained the following (in mM): CaCl2 0.90, KCl 2.67, KH2PO4 1.47, MgCl·6H2O 0.493, NaCl 136.9, […] 8.06, with a pH of 7.4. […]
A general note: The patch-clamp technique gives a direct electrical read-out from membranes.

In test [1] the target is T2, human BK (hKCa1.1/β1) potassium channel (Homo sapiens, UniProt Q12791).
T2 construct: expressed in transfected cells; host or cells: CHO cell line
T2 sequence (Q12791 whole entry): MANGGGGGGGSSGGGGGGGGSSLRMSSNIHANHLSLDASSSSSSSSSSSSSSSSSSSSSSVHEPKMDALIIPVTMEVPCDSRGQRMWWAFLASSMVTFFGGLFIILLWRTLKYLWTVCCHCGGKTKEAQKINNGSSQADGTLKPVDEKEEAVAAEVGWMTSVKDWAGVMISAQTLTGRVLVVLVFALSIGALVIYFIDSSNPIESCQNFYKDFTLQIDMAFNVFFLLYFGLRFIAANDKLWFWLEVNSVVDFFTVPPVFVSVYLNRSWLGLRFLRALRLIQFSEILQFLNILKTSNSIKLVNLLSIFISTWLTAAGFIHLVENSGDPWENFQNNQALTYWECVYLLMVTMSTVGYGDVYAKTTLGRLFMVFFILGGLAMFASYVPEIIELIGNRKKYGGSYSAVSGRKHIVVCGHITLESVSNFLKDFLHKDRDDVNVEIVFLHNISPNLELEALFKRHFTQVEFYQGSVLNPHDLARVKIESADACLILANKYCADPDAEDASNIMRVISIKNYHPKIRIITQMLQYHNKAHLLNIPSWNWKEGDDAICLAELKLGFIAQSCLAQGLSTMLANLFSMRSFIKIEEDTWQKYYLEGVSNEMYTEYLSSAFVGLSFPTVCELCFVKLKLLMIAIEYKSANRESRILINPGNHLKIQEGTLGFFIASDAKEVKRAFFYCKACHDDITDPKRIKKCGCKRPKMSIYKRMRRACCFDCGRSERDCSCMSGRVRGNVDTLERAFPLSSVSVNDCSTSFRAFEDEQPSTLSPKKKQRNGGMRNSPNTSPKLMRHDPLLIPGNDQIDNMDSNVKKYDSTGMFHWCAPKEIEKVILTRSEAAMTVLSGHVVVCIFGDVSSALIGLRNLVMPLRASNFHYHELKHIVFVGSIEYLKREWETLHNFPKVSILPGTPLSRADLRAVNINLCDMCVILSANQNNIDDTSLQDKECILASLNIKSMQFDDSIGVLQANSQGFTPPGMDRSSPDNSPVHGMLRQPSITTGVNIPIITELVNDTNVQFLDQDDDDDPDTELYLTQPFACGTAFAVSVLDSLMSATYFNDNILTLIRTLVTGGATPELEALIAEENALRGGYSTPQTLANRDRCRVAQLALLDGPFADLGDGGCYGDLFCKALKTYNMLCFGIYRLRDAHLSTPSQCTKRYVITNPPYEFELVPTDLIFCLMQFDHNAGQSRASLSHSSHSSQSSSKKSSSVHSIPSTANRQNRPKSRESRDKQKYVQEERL
T2 sequence (Q16558 whole entry partner): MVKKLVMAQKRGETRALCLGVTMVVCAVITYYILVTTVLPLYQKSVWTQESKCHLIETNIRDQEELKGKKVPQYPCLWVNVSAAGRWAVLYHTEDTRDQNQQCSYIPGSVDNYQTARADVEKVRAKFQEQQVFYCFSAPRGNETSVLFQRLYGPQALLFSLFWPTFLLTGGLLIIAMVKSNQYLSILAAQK
The test can be described thus: BK QPatch HT assay. The test is classed as cell-based. To be noted: 10 µM concentration (N=3). As for the experimental part: The effects of compounds on cloned human BK (hKCa1.1/β1) potassium channel (encoded by the human KCNMA1 and KCNMB1 genes) were examined in a CHO cell line using a QPatch HT® (Sophion Bioscience A/S, Denmark) assay. Onset and steady-state inhibition of hBK currents were measured using a voltage pulse pattern with a depolarizing test pulse (+100 mV amplitude, 200 ms duration) at 10 s intervals from a holding potential of −80 mV. The peak amplitude of the delayed outward current was measured for each test pulse. The compounds were evaluated at 10 μM in three cells for each compound, after a 3 minute compound application. The steady state inhibition produced by each compound was calculated.

For the compound `CC[C@H]1NC(=O)N(c2ccc(Oc3ccc(C)c4c3C3(CC3)CO4)nc2)C1=O` [Compound 4, (5R)-5-ethyl-3-[6-(7-methylspiro[2H-benzofuran-3,1′-cyclopropane]-4-yl)oxy-3-pyridyl]imidazolidine-2,4-dione], the “mean increase in human Kv3.3 peak current at 0 mV” value (shortened to “mean increase”) at human Kv3.3 channels was 365%.
With `CC[C@@]1(C)NC(=O)N(c2cnc(Oc3ccc(C)c(OC(F)(F)F)c3)nc2)C1=O` [Compound 2, (5R)-5-ethyl-5-methyl-3-[2-({4-methyl-3-[(trifluoromethyl)oxy]phenyl}oxy)-5-pyrimidinyl]-2,4-imidazolidinedione], the “effect on BK channel currents” value in test [1] is on record as “No significant effect”. Moreover, at human Kv3.3 channels, the “mean increase” value is 113% and the EC50 is 11.7 µM.
On to `Cc1ccc(Oc2ncc(N3C(=O)NC(C)(C)C3=O)cn2)c2c1OCC21CC1` [Compound 1, 5,5-dimethyl-3-[2-(7-methylspiro[2H-benzofuran-3,1′-cyclopropane]-4-yl)oxypyrimidin-5-yl]imidazolidine-2,4-dione], for which the “effect on BK channel currents” value in test [1] is reported as “No significant effect”. Besides, at human Kv3.3 channels, the “mean increase” value is 192% and the EC50 was 6.76 µM.
As to `Cc1ccc(Oc2ccc(-n3c(C)n[nH]c3=O)cn2)c2c1OCC21CC1` [Compound 3, 5-methyl-4-{6-[(7-methylspiro[1-benzofuran-3,1′-cyclopropan]-4-yl)oxy]pyridin-3-yl}-2,4-dihydro-3H-1,2,4-triazol-3-one], the “effect on BK channel currents” value in test [1] is reported as “No significant effect”. The EC50 on human Kv3.3 channels is 17.4 µM.
